# Target: T1, ITK (Mus musculus, UniProt Q03526)
# T1 construct: mice were sacrificed and splenocytes were isolated and used to prepare protein lysates; from tissue; host or cells: mouse splenocytes (spleen) after oral dosing
# T1 sequence (Q03526 1-625): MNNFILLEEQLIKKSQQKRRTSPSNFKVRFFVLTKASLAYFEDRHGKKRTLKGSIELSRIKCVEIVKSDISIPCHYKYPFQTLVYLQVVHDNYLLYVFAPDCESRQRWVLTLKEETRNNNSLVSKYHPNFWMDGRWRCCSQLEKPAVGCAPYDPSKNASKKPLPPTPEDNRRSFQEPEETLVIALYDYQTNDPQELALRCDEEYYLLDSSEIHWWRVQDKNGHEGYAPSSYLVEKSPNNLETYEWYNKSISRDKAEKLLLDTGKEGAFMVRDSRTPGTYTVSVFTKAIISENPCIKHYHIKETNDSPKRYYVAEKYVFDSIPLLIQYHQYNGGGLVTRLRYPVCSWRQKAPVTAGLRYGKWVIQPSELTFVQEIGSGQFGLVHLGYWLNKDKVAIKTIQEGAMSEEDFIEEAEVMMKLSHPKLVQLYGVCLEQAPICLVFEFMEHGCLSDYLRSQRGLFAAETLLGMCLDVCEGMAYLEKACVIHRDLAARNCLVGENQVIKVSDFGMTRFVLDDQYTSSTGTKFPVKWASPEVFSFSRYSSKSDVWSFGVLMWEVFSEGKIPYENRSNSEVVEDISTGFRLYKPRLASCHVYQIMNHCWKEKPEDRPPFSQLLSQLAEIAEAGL
# Assay: Mouse PD assay for ITK degradation (Western blot, splenocytes after oral administration)
# Assay type: in vivo
# Conditions: for ITK degradation in vivo at 6 hours (FIG. 3A, FIG. 4A) / ITK degradation in vivo at 6 hours (FIG. 2) / ITK degradation in vivo at 24 hours (FIG. 3A, FIG. 4A): mice, splenocytes, Western blot; for ITK degradation in vivo at 6 hours (FIG. 3A, FIG. 4A) / ITK degradation in vivo at 24 hours (FIG. 3A, FIG. 4A): oral; for ITK (%) 90 mpk PO, 6 h: percent ITK remaining in mouse splenocytes relative to vehicle; for ITK degradation in vivo at 6 hours (FIG. 2): 90 mg/kg PO
# Summary of the method: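 Mice dosed orally, some compounds at 90 mg/kg; splenocytes harvested after 6 hours (some 24 hours). ITK measured by Western blot of equal-protein lysates, normalized to actin. Values are % ITK remaining relative to vehicle-control mean.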
SMILES,"ITK degradation in vivo at 6 hours (FIG. 3A, FIG. 4A)","ITK (%) 90 mpk PO, 6 h [%]",ITK degradation in vivo at 6 hours (FIG. 2),"ITK degradation in vivo at 24 hours (FIG. 3A, FIG. 4A)"
"Cn1c(=O)n(C2CCC(=O)NC2=O)c2ccc(N3CCC(CN4CCC5(CC4)CCN(c4ccc6cc(-c7n[nH]c8c7CCC(C)(C)C8)[nH]c6c4)C5=O)CC3)cc21 (centres unmarked) [Compound 14, 3-(5-(4-((2-(2-(6,6-dimethyl-4,5,6,7-tetrahydro-1H-indazol-3-yl)-1H-indol-6-yl)-1-oxo-2,8-diazaspiro[4.5]decan-8-yl)methyl)piperidin-1-yl)-3-methyl-2-oxo-2,3-dihydro-1H-benzo[d]imidazol-1-yl)piperidine-2,6-dione]",degraded ITK in vivo,47,,
"C[C@@H](C(=O)N(C)c1ccc2cc(-c3n[nH]c4c3CCC(C)(C)C4)[nH]c2c1)N1CCN(CC2CCN(c3cccc4c3n(C)c(=O)n4C3CCC(=O)NC3=O)CC2)CC1 (stereo partly drawn) [Compound 3, (2S)—N-(2-(6,6-dimethyl-4,5,6,7-tetrahydro-1H-indazol-3-yl)-1H-indol-6-yl)-2-(4-((1-(1-(2,6-dioxopiperidin-3-yl)-3-methyl-2-oxo-2,3-dihydro-1H-benzo[d]imidazol-4-yl)piperidin-4-yl)methyl)piperazin-1-yl)-N-methylpropanamide]",degraded ITK in vivo,24,degraded ITK in vivo,degraded ITK in vivo
"CN(C(=O)CC1CCN(CC2CCN(c3ccc(C(=O)NC4CCC(=O)NC4=O)nc3)CC2)CC1)c1ccc2cc(-c3n[nH]c4c3C[C@@H]3C(F)(F)[C@]3(C)C4)[nH]c2c1 (stereo partly drawn) [Compound 75, 5-(4-((4-(2-((2-((4aS,5aR)-5,5-difluoro-5a-methyl-1,4,4a,5,5a,6-hexahydrocyclopropa[f]indazol-3-yl)-1H-indol-6-yl)(methyl)amino)-2-oxoethyl)piperidin-1-yl)methyl)piperidin-1-yl)-N-(2,6-dioxopiperidin-3-yl)picolinamide]",,137,,
"C[C@@H](C(=O)N(C)c1ccc2cc(-c3n[nH]c4c3CCC(C)(C)C4)[nH]c2c1)N1CCN(C[C@H]2CCN(c3ccc4c(c3)n(C)c(=O)n4C3CCC(=O)NC3=O)C2)CC1 (stereo partly drawn) [Compound 5, (2S)—N-(2-(6,6-dimethyl-4,5,6,7-tetrahydro-1H-indazol-3-yl)-1H-indol-6-yl)-2-(4-(((3R)-1-(1-(2,6-dioxopiperidin-3-yl)-3-methyl-2-oxo-2,3-dihydro-1H-benzo[d]imidazol-5-yl)pyrrolidin-3-yl)methyl)piperazin-1-yl)-N-methylpropanamide]",degraded ITK in vivo,97,,
"C[C@@H](C(=O)N(C)c1ccc2cc(-c3n[nH]c4c3CCC(C)(C)C4)[nH]c2c1)N1CCN(CC2CCN(c3ccc(C(=O)NC4CCC(=O)NC4=O)nc3)CC2)CC1 (stereo partly drawn) [Compound 7, 5-(4-((4-((S)-1-((2-(6,6-dimethyl-4,5,6,7-tetrahydro-1H-indazol-3-yl)-1H-indol-6-yl)(methyl)amino)-1-oxopropan-2-yl)piperazin-1-yl)methyl)piperidin-1-yl)-N-(2,6-dioxopiperidin-3-yl)picolinamide]",,100,degraded ITK in vivo,
"C[C@@H](C(=O)N(C)c1ccc2cc(-c3n[nH]c4c3C[C@@H]3C(F)(F)[C@]3(C)C4)[nH]c2c1)N1CCN(CC2CCN(c3ccc(N4CCC(=O)NC4=O)cn3)CC2)CC1 [Compound 18, (S)—N-(2-((4aS,5aR)-5,5-difluoro-5a-methyl-1,4,4a,5,5a,6-hexahydrocyclopropa[f]indazol-3-yl)-1H-indol-6-yl)-2-(4-((1-(5-(2,4-dioxotetrahydropyrimidin-1(2H)-yl)pyridin-2-yl)piperidin-4-yl)methyl)piperazin-1-yl)-N-methylpropanamide]",degraded ITK in vivo,14,,degraded ITK
"CN(C(=O)CCC1CCN(c2ccc3c(c2)C(=O)N(C2CCC(=O)NC2=O)C3=O)C1)c1ccc2cc(-c3n[nH]c4c3CCC(C)(C)C4)[nH]c2c1 (centres unmarked) [Compound 1, N-(2-(6,6-dimethyl-4,5,6,7-tetrahydro-1H-indazol-3-yl)-1H-indol-6-yl)-3-(1-(2-(2,6-dioxopiperidin-3-yl)-1,3-dioxoisoindolin-5-yl)pyrrolidin-3-yl)-N-methylpropanamide]",,153,degraded ITK in vivo,
"C[C@@]12Cc3[nH]nc(C(=O)Nc4cnn(CC5CN(C(=O)C6CN(C7CCN(c8ccc9c(c8)C(=O)N(C8CCC(=O)NC8=O)C9=O)CC7)C6)C5)c4)c3C[C@@H]1C2(F)F (stereo partly drawn) [Compound 42, (4aS,5aR)-N-(1-((1-(1-(1-(2-(2,6-dioxopiperidin-3-yl)-1,3-dioxoisoindolin-5-yl)piperidin-4-yl)azetidine-3-carbonyl)azetidin-3-yl)methyl)-1H-pyrazol-4-yl)-5,5-difluoro-5a-methyl-1,4,4a,5,5a,6-hexahydrocyclopropa[f]indazole-3-carboxamide]",,82,,
"CN(c1ccc2cc(-c3n[nH]c4c3C[C@@H]3C(F)(F)[C@]3(C)C4)[nH]c2c1)C(=O)[C@H]1C[C@]2(CCN(c3ccc4c(c3)C(=O)N([C@H]3CCC(=O)NC3=O)C4=O)C2)C1 (racemic) [Compound 71b, (2s,4s)-N-[2-[(4aS,5aR)-5,5-difluoro-5a-methyl-1H,4H,4aH,6H-cyclopropa[f]indazol-3-yl]-1H-indol-6-yl]-6-[2-[(3RS)-2,6-dioxopiperidin-3-yl]-1,3-dioxoisoindol-5-yl]-N-methyl-6-azaspiro[3.4]octane-2-carboxamide]",,30,,
"C[C@@]12Cc3[nH]nc(-c4cc5ccc(N6CCC7(CCN(CC8CCN(c9ccc(C%10CCC(=O)NC%10=O)cn9)CC8)CC7)C6=O)cc5[nH]4)c3C[C@@H]1C2(F)F (stereo partly drawn) [Compound 19, 3-(6-(4-((2-(2-((4aS,5aR)-5,5-difluoro-5a-methyl-1,4,4a,5,5a,6-hexahydrocyclopropa[f]indazol-3-yl)-1H-indol-6-yl)-1-oxo-2,8-diazaspiro[4.5]decan-8-yl)methyl)piperidin-1-yl)pyridin-3-yl)piperidine-2,6-dione]",,8,,
"C[C@@H](C(=O)N(C)c1ccc2cc(-c3n[nH]c4c3CCC(C)(C)C4)[nH]c2c1)N1CCN(CC2CCN(c3ccc(C4CCC(=O)NC4=O)cn3)CC2)CC1 (stereo partly drawn) [Compound 10, (2S)—N-(2-(6,6-dimethyl-4,5,6,7-tetrahydro-1H-indazol-3-yl)-1H-indol-6-yl)-2(4-((1-(5-(2,6-dioxopiperidin-3-yl)pyridin-2-yl)piperidin-4-yl)methyl)piperazin-1-yl)-N-methylpropanamide]",degraded ITK in vivo,11,,
"CN(C(=O)CCC1CCN(c2ccc(C(=O)NC3CCC(=O)NC3=O)nc2)C1)c1ccc2cc(-c3n[nH]c4c3C[C@@H]3C(F)(F)[C@]3(C)C4)[nH]c2c1 (stereo partly drawn) [Compound 69, 5-(3-(3-((2-((4aS,5aR)-5,5-difluoro-5a-methyl-1,4,4a,5,5a,6-hexahydrocyclopropa[f]indazol-3-yl)-1H-indol-6-yl)(methyl)amino)-3-oxopropyl)pyrrolidin-1-yl)-N-(2,6-dioxopiperidin-3-yl)picolinamide]",,140,,
"C[C@@H](C(=O)N(C)c1ccc2cc(-c3n[nH]c4c3C[C@@H]3C(F)(F)[C@]3(C)C4)[nH]c2c1)N1CCN(C[C@H]2CCN(c3ccc4c(c3)C(=O)N(C3CCC(=O)NC3=O)C4=O)C2)CC1 (stereo partly drawn) [Compound 9, (2S)—N-(2-((4aS,5aR)-5,5-difluoro-5a-methyl-1,4,4a,5,5a,6-hexahydrocyclopropa[f]indazol-3-yl)-1H-indol-6-yl)-2-(4-(((3R)-1-(2-(2,6-dioxopiperidin-3-yl)-1,3-dioxoisoindolin-5-yl)pyrrolidin-3-yl)methyl)piperazin-1-yl)-N-methylpropanamide]",,49.3,,
"CC1(C)CCc2c(-c3cc4ccc(N5CCC6(CCN(CC7CCN(c8ccc(C9CCC(=O)NC9=O)cn8)CC7)CC6)C5=O)cc4[nH]3)n[nH]c2C1 (centres unmarked) [Compound 22, 3-(6-(4-((2-(2-(6,6-dimethyl-4,5,6,7-tetrahydro-1H-indazol-3-yl)-1H-indol-6-yl)-1-oxo-2,8-diazaspiro[4.5]decan-8-yl)methyl)piperidin-1-yl)pyridin-3-yl)piperidine-2,6-dione]",,76,,
"Cn1c(=O)n(C2CCC(=O)NC2=O)c2cccc(N3CCC(CN4CCC5(CC4)CCN(c4ccc6cc(-c7n[nH]c8c7CCC(C)(C)C8)[nH]c6c4)C5=O)CC3)c21 (centres unmarked) [Compound 13, 3-(4-(4-((2-(2-(6,6-dimethyl-4,5,6,7-tetrahydro-1H-indazol-3-yl)-1H-indol-6-yl)-1-oxo-2,8-diazaspiro[4.5]decan-8-yl)methyl)piperidin-1-yl)-3-methyl-2-oxo-2,3-dihydro-1H-benzo[d]imidazol-1-yl)piperidine-2,6-dione]",degraded ITK in vivo,15,,

# Reference: patent US20240279202A1 (NURIX THERAPEUTICS, INC., priority 2021, published 2024)
